Laboratory results from PMC5431342, “Discovery of an enzyme and substrate selective inhibitor of ADAM10 using an exosite-binding glycosylated substrate” (Scientific Reports, 2016).
Where two headings read alike, the source gives them in different places.

Experiments:
[1] = biological target: T1, ADAM17 (Homo sapiens, UniProt P78536); settings: cited from earlier work
T1 construct: purchased R&D Systems 930-ADB

[2] = test system: CCL2-induced migration of peripheral blood mononuclear cells (PBMC); test: PBMC migration assay; type: cell-based
Experimental: (§1) For PBMC or primary human neutrophil chemotaxis assays, transwells with 8 or 5 µm pores were filled with 100 µL of cell suspension (1 × 10^6 cells in 100 µL DMEM + 0.2% BSA). Lower wells were filled with stimulus solution (3 nM CCL2 or 10 µg/mL CXCL8 (IL8) in assay buffer (RPMI + 0.2% BSA). After incubation of PBMCs for 2 h or neutrophils for 45 min, migrated cells were quantified in the lower well. For inhibitor studies, cells were pre-incubated in migration medium for 30 min and subsequently subjected to the migration experiment. Migrated neutrophils or PBMCs were quantified by measurement of endogenous glucuronidase activity as described.

[3] = test system: shedding of CXCL16 in A549 cells; test: CXCL16 shedding inhibition (ELISA); type: cell-based, human; settings: TNF/IFN stimulation 24 h
Experimental: (§2) A549 cells were seeded in 12-well plates and grown to confluency in DMEM supplemented with 10% FBS and 1% P/S. Subsequently, cells were starved serum-free for 4 h, incubated for 1 h with GI 254023X or CID 3117694 (concentrations as indicated) or DMSO (vehicle, 0.1%) and afterwards stimulated with 10 ng/mL TNF and 10 ng/mL IFN for 24 h or left untreated in the presence of inhibitors or DMSO. Supernatants (500 µL) were harvested and centrifuged for 10 min at 16100 g and 4 °C. […] of CXCL16 were measured using the DuoSet human CXCL16 Elisa Kit (R&D systems, Wiesbaden, Germany). Samples were stored at −80 °C and diluted 2-fold after careful thawing. The standard ranged from 0 to 25,000 pg/mL with a detection limit of 391 pg/mL. For detection of soluble syndecan-4, conditioned media (200 µL) were 2-fold diluted in blotting buffer (0.15 M NaCl buffered to pH 4.5 with 50 mM sodium acetate, and with 0.1% Triton X-100), and applied to cationic polyvinylidene difluoride-based membranes (Hybond-N, Amersham Biosciences, Freiburg, Germany) under vacuum in a dot blot apparatus (Amersham Biosciences). The membranes were blocked for 1 h with PBS-T supplemented with 1% bovine serum albumin and 3% milk powder. Human syndecan-4 was detected by incubating membranes overnight at 4 °C with mouse anti-syndecan-4 mAb (0.6 µg/mL) followed by incubation with POD-coupled goat anti-mouse Ab (27 ng/mL in PBS, Jackson Immunoresearch). Chemiluminescence was recorded and quantified using the luminescent image analyzer LAS3000 substrate after addition of ECL advanced substrate (Amersham Biosciences).

[4] = test system: syndecan-4 shedding in A549 cells; test: Syndecan-4 shedding inhibition (dot blot); type: cell-based, human; settings: TNF/IFN 24 h
Experimental: as §2, with “For detection of soluble syndecan-4, conditioned media (200 µL) were 2-fold diluted in blotting buffer (0.15 M NaCl buffered to pH 4.5 with 50 mM sodium acetate, and with 0.1% Triton X-100), and applied to cationic polyvinylidene difluoride-based membranes (Hybond-N, Amersham Biosciences, Freiburg, Germany) under vacuum in a dot blot apparatus (Amersham Biosciences). The membranes were blocked for 1 h with PBS-T supplemented with 1% bovine serum albumin and 3% milk powder.” left out

[5] = biological target: T2, ADAM10 (Homo sapiens, UniProt O14672); settings: cited from earlier work
T2 construct: purchased R&D Systems 936-AD
T2 sequence (O14672 214-748): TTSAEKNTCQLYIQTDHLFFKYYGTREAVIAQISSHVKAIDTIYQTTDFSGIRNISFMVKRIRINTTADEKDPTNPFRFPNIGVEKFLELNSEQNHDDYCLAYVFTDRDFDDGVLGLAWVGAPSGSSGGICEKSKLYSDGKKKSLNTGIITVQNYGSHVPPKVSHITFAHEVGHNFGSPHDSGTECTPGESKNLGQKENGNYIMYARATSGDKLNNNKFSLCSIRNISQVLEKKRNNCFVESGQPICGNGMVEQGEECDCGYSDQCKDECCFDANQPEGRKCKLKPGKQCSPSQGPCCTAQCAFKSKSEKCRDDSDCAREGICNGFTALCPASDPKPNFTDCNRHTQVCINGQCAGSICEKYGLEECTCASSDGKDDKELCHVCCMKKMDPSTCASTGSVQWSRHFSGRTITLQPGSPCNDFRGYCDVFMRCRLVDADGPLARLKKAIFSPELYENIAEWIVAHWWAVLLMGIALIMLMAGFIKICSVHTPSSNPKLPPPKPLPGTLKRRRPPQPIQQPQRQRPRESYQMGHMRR

[6] = test system: IL-8-induced migration of primary human neutrophils; test: Neutrophil migration assay; type: cell-based
Experimental: as §1

[7] = biological target: T1, ADAM17; test: ADAM17 glycosylated substrate uHTS/HTS assay; type: biochemical; settings: for IC50: original uHTS dose response, 10-point 1:3 dilutions starting at 70 µM
Experimental: Both assays followed the same general protocol. […] After 30 min incubation at RT, the reactions were started by addition of 2.5 µL of 2x solutions of glycosylated substrate (20 µM). Reactions were incubated at RT for 2 h, after which the fluorescence was measured using Perkin Elmer Viewlux multimode microplate imager (λexcitation = 360 nm, λemission = 460 nm). Final concentration of test compounds in assays was 7.0 µM.
(§3) The miniaturized 1536-well plate format ADAM10 and ADAM17 assays were used to screen a collection of ≈370,000 compounds (MLSMR library, provided by the NIH) on the automated Kalypsys/GNF platform at the Scripps Research Institute Molecular Screening Center (SRIMSC, Jupiter, FL. More details at http://hts.florida.scripps.edu/). […] Both uHTS campaigns were run separately but in a similar manner. Briefly, the first step was the primary screen of all MLSMR’s test compounds as singlicate against the ADAM10 or ADAM17 target at a final concentration of 7.0 μM. Next, compounds selected as primary hits were cherry-picked and retested in triplicate against the primary screen target and its anti-target (ADAM17 for the ADAM10 screening effort, and vice-versa) at the same final concentration of 7.0 μM. […] All data generated during this effort were uploaded to the SRIMSC’s institutional screening database (Assay Explorer, Symyx). Sample to background (S/B) ratios, as well as Z and Z′ values were calculated on a per-plate basis as described before. Curve fitting and resulting IC50 determinations were performed as previously reported.

[8] = biological target: T2, ADAM10; test: ADAM10 glycosylated substrate uHTS/HTS assay; type: biochemical
Experimental: To enable uHTS both ADAM10 and ADAM17 glycosylated substrate[13] (Fig. 1A) assays were miniaturized to 1536 well plate format. The workflow of the assays in 384 well plate format was recaptured in 1536 well plate format and assay volume was scaled down to 5 µL.
Both assays followed the same general protocol. […] Reactions were incubated at RT for 2 h, after which the fluorescence was measured using Perkin Elmer Viewlux multimode microplate imager (λexcitation = 360 nm, λemission = 460 nm). Final concentration of test compounds in assays was 7.0 µM.
as §3

[9] = biological target: T2, ADAM10; test: ADAM10 non-glycosylated substrate assay; type: biochemical; settings: ADAM10
Text: Additionally, we synthesized a non-glycosylated version, E(Edans)-[…]-K(Dabcyl), to be used as a control in the follow-up studies.

[10] = biological target: T2, ADAM10; test: Dual inhibition studies of ADAM10 with AHA and CID 3117694; type: biochemical
Experimental: 5 µL of 4X ADAM10 solution ([…]) were added to solid bottom black 384 low volume plates (Nunc, cat# 264705). […] 5 µL of 4X CID 3117694 were added to the wells containing AHA such that the final assay concentrations of CID 3117694 were 0.275, 0.55, 1.1, 2.2, and 4.4 µM. Enzyme-inhibitor mixtures were incubated for 1 h at RT after which 5 µL of 4X glycosylated substrate was added to all wells. Reactions were incubated at RT for 2 h, after which the fluorescence was measured using the Synergy H4 multimode microplate reader (λexcitation = 360 nm, λemission = 460 nm). IC50 values were calculated by fitting normalized data to sigmoidal log vs. response equation utilizing non-linear regression analysis from GraphPad Prizm 6.
Multi-drug combination dose-effect analysis using Compusyn software (ComboSyn, Inc. 599 Mill Run, Paramus, NJ, 07653, USA) was utilized to determine whether inhibitor combinations produced synergy, antagonism, or no effect as compared to a single inhibitor. Combination Index values were obtained using Combination Index (CI) Equation of Chou-Talalay[56] in Compusyn software (ComboSyn, Inc. 599 Mill Run, Paramus, NJ, 07653, USA) and a normalized isobologram was constructed: (D)1/(Dx)1+(D)2/(Dx)2=CI
In the denominators, (Dx)1 is the doses of Drug1 alone that inhibits x% while (Dx)2 is the dose of Drug2 alone that inhibits x%. […] Effect was determined according to the Table 1 (from ref. [57]).

[11] = original uHTS dose response, 10-point 1:3 dilutions starting at 70 µM

T1 sequence (P78536 215-824): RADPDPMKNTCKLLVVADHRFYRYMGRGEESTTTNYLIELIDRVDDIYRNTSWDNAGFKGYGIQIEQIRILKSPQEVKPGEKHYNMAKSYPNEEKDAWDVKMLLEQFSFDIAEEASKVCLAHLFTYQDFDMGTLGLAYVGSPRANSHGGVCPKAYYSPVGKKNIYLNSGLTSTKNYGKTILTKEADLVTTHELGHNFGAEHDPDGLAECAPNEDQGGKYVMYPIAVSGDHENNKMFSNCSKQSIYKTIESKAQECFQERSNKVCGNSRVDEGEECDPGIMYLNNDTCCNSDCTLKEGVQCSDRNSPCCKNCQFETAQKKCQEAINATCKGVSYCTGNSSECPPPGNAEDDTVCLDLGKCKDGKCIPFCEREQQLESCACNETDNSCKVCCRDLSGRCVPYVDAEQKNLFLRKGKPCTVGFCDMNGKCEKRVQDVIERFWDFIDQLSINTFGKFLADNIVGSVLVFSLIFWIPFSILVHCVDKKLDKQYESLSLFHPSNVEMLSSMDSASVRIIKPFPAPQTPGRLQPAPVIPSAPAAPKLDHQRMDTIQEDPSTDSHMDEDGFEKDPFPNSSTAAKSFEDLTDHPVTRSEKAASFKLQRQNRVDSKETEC

For `CNC(=O)[C@@H](NC(=O)[C@H](CCCc1ccccc1)[C@H](C)N(O)C=O)C(C)(C)C` [GI 254023X, reference compound], the IC50 [1] is given as 0.541 µM, the “inhibition of PBMC migration” value [2] is given as “completely inhibited migration” and the “inhibition of cytokine-inducible shedding of CXCL16” value [3] is given as “inhibited shedding”. For the same molecule, the “inhibition of syndecan-4 shedding” value [4] was “inhibited shedding”, the IC50 [5] was 0.0053 µM and the “inhibition of neutrophil migration” value [6] was “completely inhibited migration”.

With `CCOc1ccc(NC(=O)CC2SC(=O)N(c3ccccc3)C2=O)cc1` (stereo not shown) [CID 3153587] the IC50 [7] was 7.8 µM and the IC50 [8, 11] was over 70 µM.

With `O=C(O)CCC(=O)c1c[nH]c2ccccc12` [CID 730037] the “activity against ADAM17 of reordered powder versus original testing” value ([7]; reordered powder, 10-point 1:3 dilutions starting at 100 µM) was “significantly lower activity” and the IC50 [8, 11] was over 70 µM.

For `CNC(=O)[C@@H](NC(=O)[C@H](CC(C)C)[C@H](O)C(=O)NO)C(C)(C)C` [marimastat, reference compound], the “potency for hydrolysis of glycosylated versus non-glycosylated substrate” value [9] was “same potency”, the IC50 ([8]; 384 well plate format) was 0.033 µM and the IC50 ([8]; 1536 well plate format) was 0.02 µM.

In the case of `O=C(NO)[C@H]1C[C@H](OC(=O)N2CCCC2)CC[C@@H]1C(=O)N1CCC(c2ccccc2)CC1` [INCB8765], the IC50 [1] is listed as 2.04 µM and the IC50 [5] is listed as 0.097 µM.

For `CC(=O)NO` [AHA, acetohydroxamic acid], the IC50 ([10]; AHA alone, read-out: AHA IC50, ADAM10-mediated hydrolysis of glycosylated substrate) was 1000 ± 50 µM, the “improvement in potency versus AHA alone” value ([10]; in the presence of 1.1 µM CID 31176944) was 10 fold and the “improvement in potency versus AHA alone” value ([10]; in the presence of 4.4 µM CID 31176944) was 100 fold.

In the case of `O=C1NC(=O)C(Cc2ccc(Cl)cc2)(c2ccccc2)N1` (stereo not shown) [CID 236330], the IC50 [7] is reported as 3.2 µM and the IC50 [8, 11] is reported as 32 µM.

B1: ADAM10 prodomain: Biozyme Inc.; competitive inhibitor of ADAM10 (protein)
chain: NPLNKYIRHYEGLSYNVDSLHQKHQRAKRAVSHEDQFLLLDFHAHGRQFNLRMKRDTSLFSDEFKVETSNKVLDYDTSHIYTGHIYGEEGSFSHGSVIDGRFEGFIKTRGGTFYIEPAERYIKDRILPFHSVIYHEDDINYPHKYGPQGGCADHSVFERMRKYQMTGVEEGARAHPEKHAASSGPELLRKK
modifications: tag omitted
In the case of B1, the IC50 [1] is listed as over 10 µM and the IC50 [5] is listed as 0.048 µM.
